Measurements as given in the supplement of paper PMC10307832.

Tests used:
Experiment in all cases: relative viability (nuclei count vs DMSO), 5 days (fraction); higher = more cells survive
[1] = compound: O=c1[nH]cc(F)c(=O)[nH]1 [5-Fluorouracil] + O=C(c1cc(Cc2n[nH]c(=O)c3ccccc23)ccc1F)N1CCN(C(=O)C2CC2)CC1 [Olaparib] (partner 8 µM)
Procedure, shortened: (§1)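 For relative viability, nuclei counts in treated wells were divided by those in vehicle wells. Lung cancer cell lines had been pin-tool dosed in 1536-well plates the day after seeding and cultured for 5 days, then fixed and stained in one step (final 0.05% Triton X-100, 1% formaldehyde, 1 ug/ml Hoechst) and imaged at 4×. Doses were one drug alone or a fixed anchor-drug dose plus five library-drug doses (not always all listed) in √10 steps, and values are duplicate-plate medians.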

Sulindac + Vorinostat = compound: CC1=C(CC(=O)O)c2cc(F)ccc2/C1=C\c1ccc([S+](C)[O-])cc1 [Sulindac] + O=C(CCCCCCC(=O)Nc1ccccc1)NO [Vorinostat] (partner 1 µM)
Procedure, shortened: as §1

[2] = compound: O=c1[nH]cc(F)c(=O)[nH]1 [5-Fluorouracil] + CC1(C)CCC(c2ccc(Cl)cc2)=C(CN2CCN(c3ccc(C(=O)NS(=O)(=O)c4ccc(N[C@H](CCN5CCOCC5)CSc5ccccc5)c(S(=O)(=O)C(F)(F)F)c4)cc3)CC2)C1 [Navitoclax] (partner 0.5 µM)
Procedure, shortened: as §1

Sulindac + Crizotinib = compound: CC1=C(CC(=O)O)c2cc(F)ccc2/C1=C\c1ccc([S+](C)[O-])cc1 [Sulindac] + C[C@@H](Oc1cc(-c2cnn(C3CCNCC3)c2)cnc1N)c1c(Cl)ccc(F)c1Cl [Crizotinib] (partner 1 µM)
Procedure, shortened: as §1

| Cell Line | relative viability ([1]; first compound 0.02 µM) | relative viability ([1]; first compound 0.2 µM) | relative viability ([1]; first compound 0.6325 µM) | relative viability ([1]; first compound 2 µM) | relative viability (Sulindac + Vorinostat; first compound 0.08 µM) | relative viability (Sulindac + Vorinostat; first compound 0.253 µM) | relative viability (Sulindac + Vorinostat; first compound 0.8 µM) | relative viability (Sulindac + Vorinostat; first compound 2.53 µM) | relative viability (Sulindac + Vorinostat; first compound 8 µM) | relative viability ([2]; first compound 0.02 µM) | relative viability ([2]; first compound 0.2 µM) | relative viability ([2]; first compound 0.6325 µM) | relative viability ([2]; first compound 2 µM) | relative viability (Sulindac + Crizotinib; first compound 0.08 µM) | relative viability (Sulindac + Crizotinib; first compound 0.253 µM) | relative viability (Sulindac + Crizotinib; first compound 0.8 µM) | relative viability (Sulindac + Crizotinib; first compound 2.53 µM) | relative viability (Sulindac + Crizotinib; first compound 8 µM) |
| --- | --- | --- | --- | --- | --- | --- | --- | --- | --- | --- | --- | --- | --- | --- | --- | --- | --- | --- |
| NCI-H1355 | 0.716 | 0.485 | 0.253 | 0.225 | 0.586 | 0.721 | 0.488 | 0.619 | 0.723 | 0.699 | 0.651 | 0.353 | 0.241 | 1.27 | 1.15 | 0.954 | 1.07 | 1.11 |
| NCI-H2347 | 0.62 | 0.489 | 0.456 | 0.445 | 0.668 | 0.702 | 0.46 | 0.713 | 0.593 | 0.638 | 0.65 | 0.369 | 0.354 | 0.77 | 0.688 | 0.684 | 0.812 | 0.819 |
| NCI-H1651 | 0.172 | 0.2 | 0.188 | 0.175 | 0.623 | 0.57 | 0.486 | 0.577 | 0.593 | 1.09 | 0.9 | 0.574 | 0.42 | 0.969 | 0.86 | – | 0.93 | 0.929 |
| NCI-H1993 | 1.15 | 0.743 | 0.525 | 0.445 | 0.861 | 0.668 | 0.663 | 0.779 | 0.764 | 0.952 | 0.885 | 0.752 | 0.669 | 0.848 | 0.862 | 0.747 | 0.86 | 0.83 |
| COR-L23 | 0.36 | 0.312 | 0.273 | 0.18 | 0.453 | 0.471 | 0.399 | 0.499 | 0.561 | 1.05 | 0.949 | 0.533 | 0.239 | 0.711 | 0.783 | – | 0.613 | 0.82 |
| HCC-44 | 1.03 | 1.02 | 0.979 | 0.651 | 1.14 | 1.1 | 1.14 | 1.1 | 1.1 | 0.916 | 0.984 | 0.744 | 0.341 | 0.892 | 0.88 | 0.768 | 0.9 | 0.861 |
| LOU-NH91 | 0.92 | 0.853 | 0.74 | 0.314 | 0.965 | 0.97 | 0.716 | 0.952 | 1.1 | 0.732 | 0.637 | 0.455 | 0.283 | 0.978 | 0.768 | 0.697 | 0.688 | 0.75 |
| NCI-H520 | 0.294 | 0.366 | 0.33 | 0.258 | 0.897 | 0.914 | 0.686 | 0.682 | 0.778 | 0.81 | 1.19 | 0.873 | 0.406 | 0.801 | 0.747 | 0.445 | 0.828 | 0.876 |
| NCI-H1975 | 0.805 | 0.736 | 0.356 | 0.21 | 0.804 | 0.737 | 0.634 | 0.738 | 0.77 | 1.11 | 1.1 | 0.514 | 0.261 | 1.06 | 1.07 | – | 1.01 | 1.14 |
| NCI-H1755 | 0.817 | 0.665 | 0.374 | 0.319 | 0.751 | 0.772 | 0.754 | 0.77 | 0.753 | 0.982 | 0.757 | 0.291 | 0.198 | 1 | 0.886 | 0.743 | 0.981 | 0.935 |
| NCI-H2009 | 0.794 | 0.668 | 0.655 | 0.466 | 0.84 | 0.84 | 0.748 | 0.649 | 0.81 | 1.18 | 1.16 | 1.08 | 0.726 | 1.15 | 1.05 | 1.05 | 0.985 | 1.24 |
| LK-2 | 0.589 | 0.814 | 0.529 | 0.428 | 0.292 | 0.258 | 0.234 | 0.289 | 0.228 | 1.06 | 0.939 | 0.652 | 0.603 | 0.185 | 0.243 | – | – | 0.216 |
| HCC-78 | 0.755 | 0.599 | 0.331 | 0.28 | 0.363 | 0.415 | 0.433 | 0.455 | 0.462 | 0.55 | 0.805 | 0.285 | – | 0.305 | 0.326 | 0.327 | 0.296 | 0.401 |
| NCI-H3122 | 0.51 | 0.542 | 0.299 | 0.216 | 0.98 | 0.752 | 0.762 | 0.964 | 1.13 | 1.04 | 0.743 | 0.443 | 0.259 | 0.282 | 0.251 | 0.266 | 0.232 | 0.259 |
| HOP-62 | 0.39 | 0.449 | 0.405 | 0.387 | 0.826 | 0.88 | 0.526 | 0.598 | 0.796 | 1.09 | 1.13 | 1.01 | 0.805 | 1.06 | 1.25 | 1.06 | 0.843 | 0.987 |
| NCI-H727 | 0.748 | 0.821 | 0.747 | 0.593 | 1.35 | 1.21 | 0.998 | 1.18 | 1.24 | 0.369 | 0.41 | 0.527 | 0.315 | 0.964 | 0.779 | 0.782 | 0.856 | 1.03 |
| BEN | 1.01 | 0.851 | 0.907 | 0.913 | 0.576 | 0.57 | 0.539 | 0.614 | 0.617 | 0.0616 | 0.276 | 0.0857 | 0.0672 | 0.994 | 0.903 | 0.648 | 0.984 | 1.13 |
| NCI-H460 | 0.326 | 0.347 | 0.155 | 0.105 | 1.35 | 0.614 | 0.623 | 0.994 | 0.795 | 1.5 | 0.461 | 0.165 | 0.0655 | 1.41 | 1.07 | – | 0.833 | 1.19 |
| ChaGo-K-1 | 0.36 | 0.393 | 0.321 | 0.25 | 0.874 | 0.822 | 0.575 | 0.755 | 0.907 | 0.956 | 1.07 | 0.672 | 0.685 | 1.34 | 1.17 | 0.769 | 1.28 | 1.31 |
| SK-MES-1 | 0.656 | 0.32 | 0.296 | 0.264 | 1.43 | 1.25 | 1.09 | 1.23 | 1.16 | 1.2 | 0.789 | 0.474 | 0.373 | 1.14 | 1.09 | 0.822 | 1.09 | 1.14 |
| NCI-H2085 | 0.743 | 0.784 | 0.693 | 0.677 | 0.728 | 0.814 | 0.77 | 0.652 | 0.818 | 0.972 | 1.14 | 1.08 | 0.875 | 0.735 | 0.944 | 0.779 | 0.772 | 0.953 |
| LC-2-ad | 0.712 | 0.682 | 0.513 | 0.348 | 0.833 | 0.843 | 0.669 | 0.693 | 0.821 | 0.445 | 0.441 | 0.296 | 0.186 | 0.423 | 0.516 | 0.404 | 0.46 | 0.466 |
| 201T | 0.82 | – | 0.252 | 0.249 | 1.13 | 0.993 | 0.84 | 0.944 | 0.999 | 1.18 | 1.01 | 0.543 | 0.42 | 0.954 | 1.03 | 1.08 | 1.01 | 1.13 |
| NCI-H2023 | 0.517 | 0.196 | 0.111 | 0.0832 | 0.945 | 0.879 | 0.582 | 0.652 | 0.685 | 1.01 | 0.257 | 0.161 | 0.122 | 0.686 | 0.429 | 0.53 | 0.718 | 0.685 |
| NCI-H23 | 0.317 | 0.373 | 0.256 | 0.229 | 0.577 | 0.684 | 0.607 | 0.38 | 0.702 | 0.807 | 0.845 | 0.653 | 0.338 | 0.39 | 0.643 | 0.359 | 0.689 | 0.504 |
| LU99A | 0.307 | 0.259 | 0.267 | 0.226 | 0.499 | 0.465 | 0.454 | 0.428 | 0.551 | 0.755 | 0.795 | 0.686 | 0.563 | 0.636 | 0.515 | 0.543 | 0.474 | 0.57 |
| NCI-H1437 | 0.517 | 0.285 | 0.222 | 0.217 | 0.951 | 0.872 | 0.749 | 0.837 | 0.876 | – | 0.243 | 0.203 | 0.139 | 1.15 | 0.992 | 0.58 | 0.978 | 1.04 |
| EKVX | 0.667 | 0.277 | – | 0.169 | 0.636 | 0.635 | – | 0.652 | 0.771 | 0.847 | 0.283 | 0.142 | 0.124 | 1.17 | 0.871 | 0.692 | 0.907 | 0.947 |
| IA-LM | 1 | 0.576 | 0.285 | 0.193 | 1.07 | 1.21 | – | 0.913 | 0.981 | 0.934 | 0.328 | 0.179 | 0.178 | 0.565 | 0.804 | 0.594 | 0.677 | 1.12 |
| NCI-H647 | 0.577 | 0.501 | 0.434 | 0.407 | 0.604 | 0.952 | 0.409 | 0.628 | 0.549 | 1.24 | 1.06 | 1.09 | 0.729 | 1.4 | 1.21 | 0.879 | 1.26 | 1.35 |
